Results as given in publication PMC10192418, “High-affinity peptides developed against calprotectin and their application as synthetic ligands in diagnostic assays” (Nature Communications, 2023).
Where two headings read alike, the source gives them in different places. Numbered stars: 1 amine (or outer) side, 2 acyl side, 3 side chain; on linkers, the order of the positions; unused ones are H or OH. Bridge positions count the residues as written; N and C are the ends. Peptide text beside a SMILES is read from it. * marks the point of attachment. X1 = O=C(O)c1cc(C(=O)*)ccc1-c1c2ccc(=O)cc-2oc2cc(O)ccc12; CH2COCH2 = O=C(C[*:1])C[*:2]

Experiments:
[1] = Methionine oxidation of peptide upon storage in solution; assay type: physicochemical
[2] = biological target: T1, calprotectin tetramer (recombinant B-RCAL, His6-linker-S100A9-linker-S100A8) (Homo sapiens, UniProt P05109); assay: Fluorescence polarization (FP) binding to recombinant calprotectin B-RCAL tetramer in presence of CaCl2
T1 construct: we used the recombinant protein without removing the His-tag or cleaving the 8-amino acid linker between the two proteins; co-authors' company
T1 sequence (P05109 with tags, fused parts or gaps): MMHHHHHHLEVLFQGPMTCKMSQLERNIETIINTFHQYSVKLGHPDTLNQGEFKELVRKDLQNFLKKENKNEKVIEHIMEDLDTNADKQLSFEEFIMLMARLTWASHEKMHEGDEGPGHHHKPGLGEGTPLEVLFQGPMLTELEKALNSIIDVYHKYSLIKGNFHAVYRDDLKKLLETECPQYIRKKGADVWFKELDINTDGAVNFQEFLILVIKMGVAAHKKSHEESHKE
Method: Calprotectin was serially diluted in 20 mM HEPES, 100 mM NaCl, 2 mM CaCl2, pH 7.5, and 1 mM DTT with 0.01% (v/v) Tween-20. Volumes of 16 μL of protein were added to 4 μL of fluorescent peptide (20 nM final concentration) in black 384-well microtiter plates. Fluorescence anisotropy was measured on a microwell plate reader (Infinite M200Pro, Tecan) with filters for excitation at 485 nm and emission at 535 nm. The dissociation constant (Kd) was calculated using a following Eq. (1) using Prism 5 software (GraphPad):1 A=Af+Ab−Af×LT+KD+PT−LT+KD+PT^2−4LTPT/2LT where A is anisotropy, Af and Ab are the anisotropy values for free and bound ligands, respectively. [L]T is the concentration of the total fluorescent ligand and [P]T the concentration of the protein.

[3] = biological target: T2, calprotectin tetramer (recombinant B-RCAL) (Homo sapiens, UniProt P05109); assay: biochemical
T2 sequence (P05109 with tags, fused parts or gaps): T1 sequence (P05109 with tags, fused parts or gaps)
Method: SPR measurements were performed using a Biacore^TM 8 K instrument (GE Healthcare) using the Biacore^TM 8 K Control software. Recombinant calprotectin (B-RCAL) was diluted with 10 mM acetate buffer (pH 5.0) to reach a concentration of 5 μg/mL and immobilized on a CM5 series S chip using the standard amine coupling method in running buffer (10 mM HEPES pH 7.4, 150 mM NaCl, 2 mM CaCl2, and 0.005% v/v Tween-20) at 25 °C and the following procedure. At a flow of 10 μL/min, the following solutions were injected: 420 s 0.4 M EDC, 0.1 M NHS; 100 to 200 s protein; 500 s 1 M ethanolamine-HCl pH 8.5. Typical immobilization levels were 3000 resonance units (RUs). A reference cell was treated in the same way but without the injection of protein. A single concentration for each peptide (500 nM) was injected in a running buffer containing 0.5% (v/v) DMSO to measure the binding level. For the measurement of binding kinetics and dissociation constants, five serial dilutions (threefold) of peptides were prepared in running buffer containing 0.5% (v/v) DMSO and analyzed in single cycle kinetics mode with the contact and dissociation times of 90 s and 120 s, respectively. Data were analyzed using Biacore^TM 8 K Evaluation software.

[4] = biological target: T3, native calprotectin (tetramer, + CaCl2) (Homo sapiens, UniProt P05109+P06702); assay: FP binding to native calprotectin derived from granulocytes
T3 construct: Native calprotectin is derived from granulocytes; tissue gift from Thomas Vogl, Institute of Immunology, University of Muenster; host or cells: granulocytes
T3 sequence (P05109 1-93): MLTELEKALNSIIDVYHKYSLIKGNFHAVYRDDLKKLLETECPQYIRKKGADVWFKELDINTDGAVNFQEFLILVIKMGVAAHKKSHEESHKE
T3 sequence (P06702 2-114 limits assumed): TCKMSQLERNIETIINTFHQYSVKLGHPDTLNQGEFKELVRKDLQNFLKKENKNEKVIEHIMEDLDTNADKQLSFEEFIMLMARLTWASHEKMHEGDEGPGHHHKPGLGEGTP
Method: Fluorescence anisotropy was measured on a microwell plate reader (Infinite M200Pro, Tecan) with filters for excitation at 485 nm and emission at 535 nm. The dissociation constant (Kd) was calculated using a following Eq. […] [L]T is the concentration of the total fluorescent ligand and [P]T the concentration of the protein. Native calprotectin is derived from granulocytes (kind gift from Thomas Vogl, Institute of Immunology, University of Muenster) and was purified as described in ref. [34]. The size and concentration was analyzed and compared to B-RCAL by standard SDS-PAGE.

Row | Compound | oxidation upon storage in solution [1] | Kd ([2]; FP, 20 nM peptide, 2 mM CaCl2, Rep 1) | FP increase upon binding to calprotectin ([2]; FP, 2 mM CaCl2) | Kd [2] | Kd [3] | Kd [4]
1 | CSCC[C@H](NC(=O)[C@@H]1CCCN1C(=O)[C@H](Cc1ccccc1)NC(=O)[C@H](C)NC(=O)[C@@H](NC(=O)[C@@H]1CSCC(=O)CSC[C@H](NC(=O)[C@H](CCCNC(=N)N)NC(=O)c2ccc(-c3c4ccc(=O)cc-4oc4cc(O)ccc34)c(C(=O)O)c2)C(=O)N2CCC[C@H]2C(=O)N[C@@H](CCC(=O)O)C(=O)N1)C(C)C)C(=O)N[C@@H](Cc1ccccc1)C(=O)N[C@@H](CCC(N)=O)C(=O)N[C@H]1CSCC(=O)CSC[C@@H](C(=O)NCC(N)=O)NC(=O)[C@H](Cc2ccc(O)cc2)NC(=O)[C@H](Cc2c[nH]c3ccccc23)NC(=O)[C@H](Cc2c[nH]cn2)NC1=O [Peptide 3] (X1-RCPECVAFPMFQCHWYCG-NH2; linker 2-5, 13-17 via CH2COCH2) | a small quantity was oxidized | 20 nM | around 50% | – | – | –
2 | CSCC[C@H](NC(=O)[C@@H]1CCCN1C(=O)[C@H](Cc1ccccc1)NC(=O)[C@H](C)NC(=O)[C@@H](NC(=O)[C@@H]1CSCC(=O)CSC[C@H](NC(=O)[C@H](CCCNC(=N)N)NC(=O)c2ccc3c(c2)C(=O)OC32c3ccc(O)cc3Oc3cc(O)ccc32)C(=O)N2CCC[C@H]2C(=O)N[C@@H](CCC(=O)O)C(=O)N1)C(C)C)C(=O)N[C@@H](Cc1ccccc1)C(=O)N[C@@H](CCC(N)=O)C(=O)N[C@H]1CSCC(=O)CSC[C@@H](C(=O)NCC(N)=O)NC(=O)[C@H](Cc2ccc(O)cc2)NC(=O)[C@H](Cc2c[nH]c3ccccc23)NC(=O)[C@H](Cc2c[nH]cn2)NC1=O (single isomer, unassigned) [Peptide 3 Isomer 1] | – | – | – | 24 ± 10 nM | 51 nM | 26 ± 2 nM
